According to ChEMBL document CHEMBL1158164, “2-Deoxy-2,3-didehydro-N-acetylneuraminic acid analogs structurally modified by thiocarbamoylalkyl groups at the C-4 position: Synthesis and biological evaluation as inhibitors of human parainfluenza virus type 1” (Bioorg Med Chem, 2008):

Test: Inhibition of hPIV1 sialidase
Set-up: species or system Human respirovirus 1

Row | IC50 [µM] | SMILES
1 | 68 | CC(=O)N[C@H]1[C@H]([C@H](O)[C@H](O)CO)OC(C(=O)O)=C[C@@H]1OCCC(N)=S
2 | 300 | CC(=O)N[C@H]1[C@H]([C@H](O)[C@H](O)CO)OC(C(=O)O)=C[C@@H]1O [NEU5AC2EN]
3 | 9 | CC(=O)N[C@H]1[C@H]([C@H](O)[C@H](O)CO)OC(C(=O)O)=C[C@@H]1OCC(N)=S
4 | 102 | CC(=O)N[C@H]1[C@H]([C@H](O)[C@H](O)CO)OC(C(=O)O)=C[C@@H]1OCCCC(N)=S
